Converted amounts (≈) assume the structure as drawn.

Format in all cases: functional
Assay [1] has as its system Streptococcus sp. 'group B'. In words: Antimicrobial activity against Streptococcus sp. 'group B' isolate 16 harboring gyrA Ser81Leu mutant, parC Ser79Tyr mutant and parE Ileu495Leu mutant gene by agar dilution method.
The subject of assay [2] is Streptococcus sp. 'group B'. Put plainly: Antimicrobial activity against Streptococcus sp. 'group B' isolate 9 harboring gyrA Ser81Leu mutant, parC Ser79Tyr mutant and parE Ileu495Leu mutant gene by agar dilution method.
In assay [3] the test system is Streptococcus sp. 'group B'. Put plainly: Antimicrobial activity against Streptococcus sp. 'group B' isolate 1 harboring gyrA Glu85Lys mutant, parC Ser79Tyr mutant and parE Ileu495Leu mutant gene by agar dilution method.

Take `O=C(O)c1cn(C2CC2)c2cc(N3CCNCC3)c(F)cc2c1=O` [CIPROFLOXACIN]: the MIC in assay [1] amounted to 32 µg/mL (≈ 96.6 µM); in assay [2] it was 64 µg/mL (≈ 193 µM).

Take `COc1c(N2C[C@@H]3CCCN[C@@H]3C2)c(F)cc2c(=O)c(C(=O)O)cn(C3CC3)c12` [MOXIFLOXACIN]: the MIC is 2 µg/mL (≈ 4.98 µM) in assay [3], 4 µg/mL (≈ 9.96 µM) in assay [1] and 4 µg/mL (≈ 9.96 µM) in assay [2].

Turning to `C[C@H]1COc2c(N3CCN(C)CC3)c(F)cc3c(=O)c(C(=O)O)cn1c23.C[C@H]1COc2c(N3CCN(C)CC3)c(F)cc3c(=O)c(C(=O)O)cn1c23.O` [LEVOFLOXACIN], the MIC in assay [3] turned out to be 16 µg/mL; in assay [1] it was 32 µg/mL; in assay [2] it was 16 µg/mL.

Turning to `N[C@@H]1[C@H]2CN(c3nc4c(cc3F)c(=O)c(C(=O)O)cn4-c3ccc(F)cc3F)C[C@@H]12` [TROVAFLOXACIN], the MIC came out at 8 µg/mL (≈ 19.2 µM) in assay [3], 16 µg/mL (≈ 38.4 µM) in assay [1] and 8 µg/mL (≈ 19.2 µM) in assay [2].

Consider `COc1c(N2CCNC(C)C2)c(F)cc2c(=O)c(C(=O)O)cn(C3CC3)c12` (configuration not stated) [GATIFLOXACIN], for which the MIC in assay [3] worked out at 4 µg/mL (≈ 10.7 µM); in assay [1], 8 µg/mL (≈ 21.3 µM); in assay [2], 4 µg/mL (≈ 10.7 µM).

Consider `C[C@H]1NCc2cc(-c3ccc4c(=O)c(C(=O)O)cn(C5CC5)c4c3OC(F)F)ccc21` [GARENOXACIN], for which the MIC in assay [3], in assay [1] and in assay [2] was 2 µg/mL (≈ 4.69 µM) in each case.

These data come from ChEMBL document CHEMBL1255331, “Emergence of fluoroquinolone resistance in group B streptococcal isolates in Taiwan” (2008).
